The values that follow come from patent US8911715B2, “L-menthyl-N-(2-hydroxyphenyl)carbamate” (Symrise AG, priority 2008, dated 2014).

≈ marks a conversion by molar mass, not a printed value.

Assay [1] is described as follows: ABTS assay, cell-free in vitro test of antioxidant capacity. Format: biochemical. The note with it: for IC50: ABTS decoloration at 734 nm, read-out: IC50 (antioxidant concentration in which 50% of the cationic radicals are reduced); for IC50 / Mean antioxidant capacity (AOX): mean of two independent tests. Also on record: Mean antioxidant capacity (AOX): unit not given here. The source says:
In order to check to what extent L-menthyl-N-(2-hydroxyphenyl)carbamate also has antioxidant potential, the substance was investigated with the aid of the ABTS assay.
The ABTS assay is a cell-free in vitro test for evaluating the antioxidant capacity (literature: Re R, Pellegrini N, Proteggente A, Pannala A, Yang M, Rice-Evans C. 1999. “Antioxidant activity applying an improved ABTS radical cation decolorization assay”; Free Radic. Bio. Med. 26: 1231-7). The assay uses the inherent color of a solution produced with the cationic radical 2,2′-azinobis(3-ethylbenzothiazoline 6-sulfonic acid) (ABTS+) and potassium persulfate, which solution is decolored by the addition of antioxidants (reduction of the cationic radical). This decoloration can be measured photometrically at 734 nm.
The test is carried out in 96-well microtiter plates. The antioxidant capacity is expressed in IC50 values (antioxidant concentration in which 50% of the cationic radicals are reduced). All the ABTS test results result from two independent tests and are shown as mean values with associated mean value deviation.

Another assay concerns Corynebacterium xerosis. The experiment in a line: MIC determination, series dilution test (microtiter plate) / agar dilution method. Format: cell-based. How it is done: (§1) The evidence of the antimicrobial action against body perspiration odor bacteria of the substances synthesized according to the examples was implemented with the aid of the agar dilution method according to DIN 58 940/ICS and DIN 58 944/ICS. Petri dishes of 5.5 cm in diameter were filled with 8.7 ml freshly produced Mueller-Hinton-agar or Wilkins-Chalgren-agar bouillon kept liquid at 50° C., supplemented with 10 g agar-agar/liter) to which the various concentrations of the thinned samples were added in 3.3% by volume=0.3 ml.
(§2) 2.6 ml of the 3.3% samples were diluted with ethanol (96%). By continuous 2:1 dilution with ethanol (96%) the further test concentrations of the respective series of dilution, which were placed in the form of geometric rows, were produced.
(§3) By further dilution with the test agar (0.3 ml sample or corresponding dilutions+8.7 ml agar), 30 times lower end concentrations were achieved (corresponds to a starting concentration of 1,100 ppm in each case). The concentrations disclosed below relate to the pure substance and are converted into ppm. […]
(§4) All the test germ suspensions were diluted again with sterile bouillon 1:10 and the germ count thereof determined in the surface method per spiralometer (results: see Table 1).
(§5) The lowest active ingredient concentration was regarded as the MIC (minimal inhibition concentration), at which no growth is macroscopically present. Minimal, hardly visible growth or a few small individual colonies were evaluated as inhibition.
(§6) The minimum inhibition concentration (MIC) of the compound according to the invention, was determined against various cosmetically relevant germs in the series dilution test (H. Brandis, G. Pulverer: Lehrbuch der Medizinischen Mikrobiologie, 6th revised edition, Gustav Fischer Verlag Stuttgart, 1988; page 200 et seq.). The test was transferred to the microtiter plate format and the concentration was determined as the MIC value, in which after 16 hours of incubation, at the wavelength of 620 nm, no significant rise in the clouding was observed relative to the controls.
In general terms: In agar dilution, organisms are placed on agar that contains the substance at set levels.

For the next assay, the system named is Staphylococcus aureus. The assay is described as above. The note with it: ATCC6538; Staphylococcus aureus ATCC 6538; 16 hours incubation, clouding at 620 nm. Format: cell-based. Here is the method: as §1, §2, §3, §4, §5, §6
The subject of the next assay is Aspergillus niger. The description is as above. Format: cell-based. Here is the method:
as §1
2.6 ml of the 3.3% samples were diluted with ethanol (96%). […]
as §4, §5
The minimum inhibition concentration (MIC) of the compound according to the invention, was determined against various cosmetically relevant germs in the series dilution test (H. Brandis, G. Pulverer: Lehrbuch der Medizinischen Mikrobiologie, 6th revised edition, Gustav Fischer Verlag Stuttgart, 1988; page 200 et seq.). […]

On to `CC(C)[C@@H]1CC[C@@H](C)C[C@H]1OC(=O)Nc1ccccc1O` [L-menthyl-N-(2-hydroxyphenyl)carbamate], for which the IC50 in assay [1] is 19 µM. In assay [1] (ABTS investigations), the “antioxidant capacity compared with reference alpha-tocopherol (in words)” value was “comparable with the antioxidant capacity of the reference substance alpha-tocopherol”. Moreover, the “Mean antioxidant capacity (AOX)” value in assay [1] (concentration 0.001 mM) came out at 3.58; in assay [1] (concentration 0.0025 mM) it was 8.84; in assay [1] (concentration 0.005 mM), 17.50; in assay [1] (concentration 0.025 mM), 63.15; in assay [1] (concentration 0.05 mM), 96.56. Also, the MIC (as a rule, the smallest concentration in the dilution series that meets the test's criterion for growth inhibition) is 8 µg/mL (≈ 27.5 µM) in the assay with Corynebacterium xerosis (ATCC7711, Corynebacterium xerosis ATCC 7711, 16 hours incubation, clouding at 620 nm); 8 µg/mL (≈ 27.5 µM) in the assay on Staphylococcus aureus; > 1000 µg/mL against Aspergillus niger (ATCC16404, Aspergillus niger ATCC 16404, 16 hours incubation, clouding at 620 nm). In addition, the “inhibition of the growth (in words)” value in the assay with Corynebacterium xerosis (gram-positive bacteria such as corynebacterium xerosis, very small concentrations) is “clear inhibition of the growth”. The “activity relative to mould fungi (in words)” value in the assay on Aspergillus niger (mould fungi such as Aspergillus niger) was “inactive”.
With `Cc1c(C)c2c(c(C)c1O)CC[C@@](C)(CCC[C@H](C)CCC[C@H](C)CCCC(C)C)O2` [alpha-tocopherol, reference compound], the IC50 in assay [1] turned out to be 25 µM. Further, the “Mean antioxidant capacity (AOX)” value in assay [1] (concentration 0.001 mM) amounted to 0.56; in assay [1] (concentration 0.0025 mM), 4.16; in assay [1] (concentration 0.005 mM), 10.83; in assay [1] (concentration 0.025 mM), 51.38; in assay [1] (concentration 0.05 mM) it was 94.88.
